Entries after “also recorded” stand apart in the source; their conditions may differ.
Columns and labels:
[1] = system: choroidal neovascularization lesion; experiment: Macular degeneration treatment effect, laser-induced mouse CNV model (wet AMD); assay type: in vivo; settings: for CNV lesion, intravitreal administration: once immediately after laser irradiation, fluorescent staining of blood vessels
Procedure: It was intended to confirm the healing efficacy of a lesion in a mouse CNV model, which is a wet senile macular degeneration (wet AMD) model.
To this end, five C57BL/6 (Koatech, Korea) male mice (aged 7 weeks) were used, and after 1 week of acclimation, the 8-week-old mice were anesthetized using ketamine hydrochloride (100 mg/kg, I.P.), and a drop of Mydriacyl (tropicamide) eye drops was placed on the right eye to induce mydriasis. After 3 minutes, the mouse was placed on a stand attached to a slit lamp, and a coverslip was put on the right eye to serve as a contact lens. After illuminating the optic nerve head using the slip lamp, four laser spots (200 mW, 50 μm spot size, 100-ms duration) around the optic nerve head were irradiated using a 532 nm laser device (Irdiex Oculight Tx, USA) attached to the slit lamp.
After forming a choroidal neovascularization lesion as described above, a solution prepared by dissolving ribose-lenalidomide in PBS was administered to the lesion. For intravitreal administration, 1.5 μL of the solution with a concentration of 0.2 μg/mL was administered once immediately after laser irradiation using a 25 μL Hamilton syringe with a 33G needle. Meanwhile, ribose-lenalidomide was dissolved in PBS to have a concentration of 2 mg/mL, prepared in the form of eye drops, administered four times a day, and then 7 days or 14 days after administration, efficacy was confirmed through fluorescent staining of blood vessels.
Fluorescent staining was performed using Heidelberg Spectralis HRA+OCT device (Heidelberg, Germany) equipment, the mouse was anesthetized using ketamine hydrochloride (100 mg/kg, I.P.) and xylazine (10 mg/kg, I.P.), a drop of Mydriacyl (tropicamide) eye drops was placed on the right eye to induce mydriasis, 0.05 mL of 10% fluorescite (Alcon, USA) was administered via I.P. administration to stain blood vessels. Fluorescent images were taken 10 minutes after fluorescite injection.

MM.1S cells = experiment: Tumor cell killing effect, CCK analysis; assay type: cell-based, human; settings: 0 to 10 μM, 3 days, dissolved in DMSO or D.W.
Procedure: To this end, a human multiple myeloma cell line, MM.1S (CRL-2974), was purchased from the American Type Culture Collection (ATCC, Manassas, VA, USA), and incubated using a RPMI1640 medium (Corning, MD, USA) supplemented with a 10% bovine fetal serum (Corning, MD, USA), 100 U/mL penicillin (Corning, MD, USA), and 100 μg/mL streptomycin (Corning, MD, USA) at 37° C. in a 5% CO2 incubator for 24 hours. The cells were seeded at 1×10^4 cells/well in a 96-well plate, incubated for 24 hours, further incubated for 3 days after treatment with 0, 0.005, 0.014, 0.041, 0.123, 0.37, 1.111, 3.333, or 10 μM of ribose-lenalidomide dissolved in DMSO or D.W., and then analyzed using a CCK analysis kit (Dojindo, Japan) according to the manufacturer's instructions.

multiple myeloma = settings: combination of lenalidomide and dexamethasone; cited from earlier work
[2] = Water solubility, stepwise addition of water, classed by USP23; assay type: physicochemical
Procedure: 3 mg of lenalidomide (Combi-Block, Inc. San Diego, CA, USA) and ribose-lenalidomide were each weighed and placed in a 1.5 mL Eppendorf tube, 0.03 mL of water was added thereto, and then the mixture was vortexed for one minute and then centrifuged at 15,000 rpm for 1 minute, and an undissolved compound was precipitated. When the precipitated compound was visible, 0.03 mL of water was added, and the above process was repeated.
The solubility was determined by Table 1 as defined in United States Pharmacopeia 23 (USP23).

SALL4 = target: T1, SALL4 (Homo sapiens, UniProt Q96SW2+Q9UJQ4); experiment: SALL4 degradation in Tera-1 cell line (HTB-105), western blot; assay type: cell-based; settings: 1 or 10 μM, compared with the base compound
T1 construct: endogenous in cells; host or cells: Tera-1 (ATCC HTB-105)
Procedure: The cell extract was loaded at the same amount, separated using SDS-PAGE, and transferred to a PVDF membrane. The protein-transferred membrane was blocked using skim milk, subjected to o/n incubation with a primary antibody at 4° C., and incubated with an HRP-attached secondary antibody at 4° C. for 1 hour. The cells were washed with TBS-T three times between steps. Detection was performed by applying a chemiluminescence reagent (Thermo Fisher Scientific), and confirmation was performed using Chemidoc (iBright CL1000, Invitrogen, CA, USA).

cereblon (CRBN) protein = target: T2, cereblon (CRBN) protein (Homo sapiens, UniProt Q96SW2); experiment: CRBN binding affinity, Alpha assay of competitive inhibition of CRBN-dBET1 binding; settings: compared with the base lenalidomide or pomalidomide
T2 construct: FLAG; purchased BPS Bioscience #79770
Text: An immunomodulatory amide-type compound such as lenalidomide is known to act by binding to the cereblon (CRBN) protein. Therefore, the binding affinity of ribose-lenalidomide for the cereblon (CRBN) protein was compared with that of its base, lenalidomide (Combi-Block, Inc. San Diego, CA, USA), for the cereblon (CRBN) protein.

Ikaros = target: T3, Ikaros (Homo sapiens, UniProt Q13422+Q96SW2); experiment: Ikaros degradation in MM.1S cells, western blot; assay type: cell-based; settings: 1 μM or 10 μM, 24 hours
T3 construct: endogenous in cells; host or cells: MM.1S (ATCC CRL-2974)
Procedure: (§1) It is known that a thalidomide-based compound binds to an E3 ligase, cereblon (CRBN), and decomposes transcription factors Aiolos and Ikaros as substrates, thereby regulating the function of immune cells. Therefore, to confirm whether ribose-lenalidomide still maintains its immunomodulatory function, the Aiolos and Ikaros degradation effect was compared with its base, lenalidomide.
(§2) After seeding the cells and incubating the cells for 24 hours, each compound was further incubated for 24 hours after treatment with 1 μM or 10 μM of each compound. The cells were lysed in a RIPA buffer containing a protease inhibitor cocktail (Thermo Fisher Scientific) and centrifuged at 14,000 rpm for 15 minutes at 4° C., thereby obtaining a cell extract. The cell extract was loaded at the same amount, separated using SDS-PAGE, and transferred to a PVDF membrane. The protein-transferred membrane was blocked using skim milk, subjected to o/n incubation with a primary antibody at 4° C., and incubated with an HRP-attached secondary antibody at 4° C. for 1 hour. The cells were washed with TBS-T three times between steps. Detection was performed by applying a chemiluminescence reagent (Thermo Fisher Scientific), and confirmation was performed using Chemidoc (iBright CL1000, Invitrogen, CA, USA).

Aiolos = target: T4, Aiolos (Homo sapiens, UniProt Q96SW2+Q9UKT9); experiment: Aiolos degradation in MM.1S cells, western blot; assay type: cell-based; settings: 1 μM or 10 μM, 24 hours
T4 construct: endogenous in cells; host or cells: MM.1S (ATCC CRL-2974)
Procedure: as §1, §2

CK1α = target: T5, CK1α (Homo sapiens, UniProt P48729+Q96SW2); experiment: CK1α degradation in MM.1S cells, western blot; assay type: cell-based; settings: 1 μM or 10 μM, 24 hours
T5 construct: endogenous in cells; host or cells: MM.1S (ATCC CRL-2974)
Procedure: as §2

O=C1CCC(N2Cc3c(/N=C/[C@H](O)[C@@H](O)[C@H](O)[C@H](O)CO)cccc3C2=O)C(=O)N1 (stereo partly drawn) [glucose-lenalidomide (type 1)]
CNV lesion, intravitreal administration [1]: macular degeneration treatment effect was confirmed

O=C1CCC(N2C(=O)c3cccc(NC[C@H](O)[C@@H](O)[C@H](O)[C@H](O)CO)c3C2=O)C(=O)N1 (stereo partly drawn) [glucose-pomalidomide (type 2)]
tumor cell killing effect / viability of MM.1S cells (MM.1S cells): not significantly reduced

Nc1cccc2c1CN(C1CCC(=O)NC1=O)C2=O (racemic) [lenalidomide, (RS)-3-(4-amino-1-oxo-1,3-dihydro-2H-isoindol-2-yl)piperidine-2,6-dione, reference compound]
disease-free survival period (multiple myeloma): 13.4 months
overall survival period (multiple myeloma): 38 months
water solubility in words ([2]; D.W.): completely insoluble in water; also recorded: barely dissolved in D.W

O=C1CCC(N2Cc3c(/N=C/[C@H](O)[C@H](O)[C@H](O)CO)cccc3C2=O)C(=O)N1 (stereo partly drawn) [ribose-lenalidomide (type 1)]
SALL4 degradation effect (teratogenic side effect) (SALL4): inhibited SALL4 degradation effect compared to lenalidomide
CRBN binding affinity (cereblon (CRBN) protein): improved binding affinity
Ikaros degradation effect (Ikaros): almost similar to lenalidomide
Aiolos degradation effect (Aiolos): almost similar to lenalidomide
CK1α degradation effect (CK1α): almost similar to lenalidomide
tumor cell killing effect / viability of MM.1S cells (MM.1S cells): effective in killing MM.1S cells
CNV lesion, eye drop administration ([1]; eye drops 2 mg/mL in PBS, four times a day, 7 or 14 days): distinct decrease in the lesion
CNV lesion, intravitreal administration [1]: distinct decrease in the lesion
solubility term based on USP 23 ([2]; water): freely soluble
solubility at 1 min ([2]; water, thermodynamic from solid, D.W., no visible precipitate after vortexing and centrifugation): ≥ 100 mg/mL

Source: patent publication US20250197438A1, “IMMUNOREGULATORY AMIDE DERIVATIVE WITH IMPROVED MATERIAL PROPERTIES” (AEVIS BIO, INC., priority 2021, published 2025)
